Results taken from US20220213047A1, “CARBONIC ANHYDRASE INHIBITORS FOR TREATMENT OF NEISSERIA GONORRHOEAE INFECTION” (Purdue Research Foundation, priority 2021, published 2022).
Converted amounts (≈) assume the structure as drawn. Read-outs that look alike come from different tables or passages of the source.

What was measured:
N. gonorrhoeae = experiment: MIC by agar dilution on a larger panel of N. gonorrhoeae strains; assay type: cell-based, Neisseria gonorrhoeae; conditions: for MIC / MIC50 / MIC90: Neisseria gonorrhoeae; for Original MIC: in brackets in Table 8
Description: These tests were performed in normal culture conditions with standard CO2 levels and in CO2 (5% in incubator) conditions.

Lactobacillus sp = experiment: MIC50 against pathogenic and commensal bacteria: Lactobacillus sp; assay type: cell-based; conditions: Lactobacillus sp (12 strains); normal
Text: (§1) We have shown that CAIs display a narrow-spectrum of activity (Table 6). We have previously shown that CAIs have potential as anti-enterococcal agents for decolonization of the gut and treating systemic vancomycin-resistant enterococci (VRE) infections without affecting commensal strains common in the human microbiome or other pathogenic bacteria. […] The extremely narrow spectrum of this class of inhibitors would be a positive for clinical use as the molecules: 1) would not have deleterious effects on normal microbiota, and 2) would have less opportunity for resistance to arise to other important pathogenic strains aside from VRE.

S. pneumoniae = experiment: MIC50 against pathogenic and commensal bacteria: S. pneumoniae; assay type: cell-based; conditions: Streptococcus pneumoniae; S. pneumoniae (4 strains); normal
Text: as §1

L. crispatus = experiment: MIC50 against pathogenic and commensal bacteria: L. crispatus; assay type: cell-based; conditions: Lactobacillus crispatus; L. crispatus (2 strains); normal
Text: as §1

Enterobacter spp. = experiment: MIC50 against pathogenic and commensal bacteria: Enterobacter spp.; assay type: cell-based; conditions: Enterobacter spp. (4 strains); normal
Text: as §1

S. epidermidis = experiment: MIC50 against pathogenic and commensal bacteria: S. epidermidis; assay type: cell-based; conditions: Staphylococcus epidermidis; S. epidermidis (3 strains); normal
Text: as §1

[1] = strain panel of Table 9, CO2 (5% CO2 containing air)

CCOc1ccc2nc(S(N)(=O)=O)sc2c1 [Ethoxzolamide]
MIC (N. gonorrhoeae; N. gonorrhoeae 185, CO2 (5% CO2 containing air), read-out: MIC): 64 mg/L (≈ 248 µM)
MIC (N. gonorrhoeae; N. gonorrhoeae 186, CO2 (5% CO2 containing air), read-out: MIC): 64 mg/L (≈ 248 µM)
MIC (N. gonorrhoeae; N. gonorrhoeae 188, CO2 (5% CO2 containing air), read-out: MIC): 64 mg/L (≈ 248 µM)
MIC (N. gonorrhoeae; N. gonorrhoeae 188, Non CO2 (ambient air), read-out: MIC): 0.06 mg/L (≈ 0.232 µM)
MIC (N. gonorrhoeae; N. gonorrhoeae 191, CO2 (5% CO2 containing air), read-out: MIC): > 128 mg/L
MIC (N. gonorrhoeae; N. gonorrhoeae 191, Non CO2 (ambient air), read-out: MIC): 0.06 mg/L (≈ 0.232 µM)
MIC (N. gonorrhoeae; N. gonorrhoeae 193, CO2 (5% CO2 containing air), read-out: MIC): 64 mg/L (≈ 248 µM)
MIC (N. gonorrhoeae; N. gonorrhoeae 194, CO2 (5% CO2 containing air), read-out: MIC): 64 mg/L (≈ 248 µM)
MIC (N. gonorrhoeae; N. gonorrhoeae 194, Non CO2 (ambient air), read-out: MIC): 0.25 mg/L (≈ 0.968 µM)
MIC (N. gonorrhoeae; N. gonorrhoeae 196, CO2 (5% CO2 containing air), read-out: MIC): > 128 mg/L
MIC (N. gonorrhoeae; N. gonorrhoeae 197, CO2 (5% CO2 containing air), read-out: MIC): 128 mg/L (≈ 496 µM)
MIC (N. gonorrhoeae; N. gonorrhoeae 197, Non CO2 (ambient air), read-out: MIC): 0.25 mg/L (≈ 0.968 µM)
MIC (N. gonorrhoeae; N. gonorrhoeae 198, CO2 (5% CO2 containing air), read-out: MIC): > 128 mg/L
MIC (N. gonorrhoeae; N. gonorrhoeae 198, Non CO2 (ambient air), read-out: MIC): 0.25 mg/L (≈ 0.968 µM)
MIC (N. gonorrhoeae; N. gonorrhoeae 200, CO2 (5% CO2 containing air), read-out: MIC): > 128 mg/L
MIC (N. gonorrhoeae; N. gonorrhoeae 200, Non CO2 (ambient air), read-out: MIC): 0.25 mg/L (≈ 0.968 µM)
MIC (N. gonorrhoeae; N. gonorrhoeae 202, CO2 (5% CO2 containing air), read-out: MIC): 128 mg/L (≈ 496 µM)
MIC (N. gonorrhoeae; N. gonorrhoeae 202, Non CO2 (ambient air), read-out: MIC): 0.06 mg/L (≈ 0.232 µM)
MIC (N. gonorrhoeae; N. gonorrhoeae 203, CO2 (5% CO2 containing air), read-out: MIC): 64 mg/L (≈ 248 µM)
MIC (N. gonorrhoeae; N. gonorrhoeae 205, CO2 (5% CO2 containing air), read-out: MIC): 128 mg/L (≈ 496 µM)
MIC (N. gonorrhoeae; N. gonorrhoeae 206, CO2 (5% CO2 containing air), read-out: MIC): > 128 mg/L
MIC (N. gonorrhoeae; N. gonorrhoeae 207, CO2 (5% CO2 containing air), read-out: MIC): 64 mg/L (≈ 248 µM)
MIC (N. gonorrhoeae; N. gonorrhoeae 208, CO2 (5% CO2 containing air), read-out: MIC): > 128 mg/L
MIC (N. gonorrhoeae; N. gonorrhoeae 209, CO2 (5% CO2 containing air), read-out: MIC): > 128 mg/L
MIC (N. gonorrhoeae; N. gonorrhoeae 209, Non CO2 (ambient air), read-out: MIC): 0.06 mg/L (≈ 0.232 µM)
MIC (N. gonorrhoeae; N. gonorrhoeae 210, CO2 (5% CO2 containing air), read-out: MIC): 64 mg/L (≈ 248 µM)
MIC (N. gonorrhoeae; N. gonorrhoeae 211, CO2 (5% CO2 containing air), read-out: MIC): 64 mg/L (≈ 248 µM)
MIC (N. gonorrhoeae; N. gonorrhoeae 211, Non CO2 (ambient air), read-out: MIC): 0.5 mg/L (≈ 1.94 µM)
MIC (N. gonorrhoeae; N. gonorrhoeae 212, CO2 (5% CO2 containing air), read-out: MIC): 64 mg/L (≈ 248 µM)
MIC (N. gonorrhoeae; N. gonorrhoeae 212, Non CO2 (ambient air), read-out: MIC): 0.25 mg/L (≈ 0.968 µM)
MIC (N. gonorrhoeae; N. gonorrhoeae 213, CO2 (5% CO2 containing air), read-out: MIC): 64 mg/L (≈ 248 µM)
MIC (N. gonorrhoeae; N. gonorrhoeae 214, CO2 (5% CO2 containing air), read-out: MIC): 64 mg/L (≈ 248 µM)
MIC (N. gonorrhoeae; N. gonorrhoeae 214, Non CO2 (ambient air), read-out: MIC): 0.25 mg/L (≈ 0.968 µM)
MIC50 (N. gonorrhoeae; N. gonorrhoeae (39 strains), CO2 (5% CO2 in the incubator)): > 128 mg/L
MIC50 (N. gonorrhoeae; [1]): > 128 mg/L
MIC90 (N. gonorrhoeae; [1]): > 128 mg/L
MIC (N. gonorrhoeae; strain panel of Table 9, CO2 (5% CO2 containing air), read-out: Modal MIC): > 128 mg/L
MIC90 (N. gonorrhoeae; strain panel of Table 9, Non CO2 (ambient air, standard CO2 conditions)): 0.5 mg/L (≈ 1.94 µM)
Original MIC (N. gonorrhoeae; Ng 197): 0.25 mg/L
Original MIC (N. gonorrhoeae; Ng 202): 0.06 mg/L
MIC50 (Lactobacillus sp): > 256 mg/L
MIC50 (S. pneumoniae): > 512 mg/L
MIC50 (L. crispatus): > 256 mg/L
MIC50 (Enterobacter spp.): > 256 mg/L
MIC50 (S. epidermidis): > 256 mg/L
